Biological target: T1, RIPK2 enzyme (Homo sapiens, UniProt O43353)
T1 construct: purchased Carna 09-128
Assay: RIPK2 inhibition (ADP-Glo Kinase Assay)
Assay type: biochemical
Settings: RIPK2 5 nM, ATP 150 μM, MBP substrate, read-out: RIPK2 IC50
In short: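 Swine MBP substrate; compound and 5 nM RIPK2 first mixed for 30 min at room temperature; buffer pH 7.5 HEPES 50 mM with 10 mM MgCl2, 2 mM DTT, 1 mM EGTA, Brij-35, BSA.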

T1 sequence (O43353 1-299 limits assumed): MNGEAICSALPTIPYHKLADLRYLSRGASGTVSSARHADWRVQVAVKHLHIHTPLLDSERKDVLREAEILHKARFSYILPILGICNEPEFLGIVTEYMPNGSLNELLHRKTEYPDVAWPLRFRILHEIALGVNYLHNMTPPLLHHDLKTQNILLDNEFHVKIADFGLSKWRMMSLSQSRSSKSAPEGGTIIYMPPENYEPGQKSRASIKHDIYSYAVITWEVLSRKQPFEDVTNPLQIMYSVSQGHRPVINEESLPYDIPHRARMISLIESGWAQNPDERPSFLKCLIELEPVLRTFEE

| Structure (SMILES) | IC50 |
| --- | --- |
| Cc1cc(CC(=O)Nc2cnn(C(C)(C)C)c2)ccc1Oc1ccnc2ccc(S(=O)(=O)C3COC3)cc12 [Compound 101, N-(1-(tert-butyl)-1H-pyrazol-4-yl)-2-(3-methyl-4-((6-(oxetan-3-ylsulfonyl)quinolin-4-yl)oxy)phenyl)acetamide] | < 2.5 nM |
| Cc1c(Oc2ccnc3ccc(OC4CCNCC4)cc23)ccc(CC(=O)Nc2cnn(C(C)(C)C)c2)c1F [Compound 102, N-(1-(tert-butyl)-1H-pyrazol-4-yl)-2-(2-fluoro-3-methyl-4-((6-(piperidin-4-yloxy)quinolin-4-yl)oxy)phenyl) acetamide] | < 2.5 nM |
| Cc1c(Oc2ccnc3ccc(OC4CCN(C)CC4)cc23)ccc(CC(=O)Nc2cnn(C(C)(C)C)c2)c1F [Compound 103, N-(1-(tert-butyl)-1H-pyrazol-4-yl)-2-(2-fluoro-3-methyl-4-((6-((1-methylpiperidin-4-yl)oxy)quinolin-4-yl)oxy)phenyl)acetamide] | < 2.5 nM |
| [2H]C([2H])([2H])c1cc(CC(=O)Nc2cnn(C(C)(C)C)c2)ccc1Oc1ccnc2ccc(OC3CCNCC3)cc12 [Compound 104, N-(1-(tert-butyl)-1H-pyrazol-4-yl)-2-(3-(methyl-d3)-4-((6-(piperidin-4-yloxy)quinolin-4-yl)oxy)phenyl) acetamide] | < 2.5 nM |
| [2H]C([2H])([2H])c1cc(CC(=O)Nc2cnn(C(C)(C)C)c2)ccc1Oc1ccnc2ccc(OC3CCN(C)CC3)cc12 [Compound 105, N-(1-(tert-butyl)-1H-pyrazol-4-yl)-2-(3-(methyl-d3)-4-((6-((1-methyl-piperidin-4-yl)oxy)quinolin-4-yl)oxy)phenyl) acetamide] | < 2.5 nM |
| Cc1c(Oc2ncnc3ccc(OC4CCNCC4)cc23)ccc(CC(=O)Nc2cnn(C(C)(C)C)c2)c1F [Compound 106, N-(1-(tert-butyl)-1H-pyrazol-4-yl)-2-(2-fluoro-3-methyl-4-((6-(piperidin-4-yloxy)quinazolin-4-yl)oxy)phenyl) acetamide] | < 2.5 nM |
| Cc1c(Oc2ncnc3ccc(OC4CCN(C)CC4)cc23)ccc(CC(=O)Nc2cnn(C(C)(C)C)c2)c1F [Compound 107, N-(1-(tert-butyl)-1H-pyrazol-4-yl)-2-(2-fluoro-3-methyl-4-((6-((1-methyl-piperidin-4-yl)oxy)quinazolin-4-yl)oxy)phenyl) acetamide] | < 2.5 nM |
| CCN1CCC(Oc2ccc3nccc(Oc4cnc(CC(=O)Nc5cnn(C(C)(C)C)c5)c(F)c4)c3c2)CC1 [Compound 108, N-(1-(tert-butyl)-1H-pyrazol-4-yl)-2-(5-((6-((1-ethylpiperidin-4-yl)oxy)quinolin-4-yl)oxy)-3-fluoropyridin-2-yl)acetamide] | 11.3 nM |
| CCN1CCC(Oc2ccc3ncnc(Oc4ccc(CC(=O)Nc5cnn(C(C)(C)C)c5)cc4C)c3c2)CC1 [Compound 109, N-(1-(tert-butyl)-1H-pyrazol-4-yl)-2-(4-((6-((1-ethyl-piperidin-4-yl)oxy)quinazolin-4-yl)oxy)-3-methylphenyl) acetamide] | 3.9 nM |
| Cc1cc(CC(=O)Nc2cnn(C(C)(C)C)c2)ccc1Oc1ccnc2ccc(OC3CCN(CC(F)(F)F)CC3)cc12 [Compound 110, N-(1-(tert-butyl)-1H-pyrazol-4-yl)-2-(3-methyl-4-((6-((1-(2,2,2-trifluoroethyl)piperidin-4-yl)oxy)quinolin-4-yl)oxy)phenyl) acetamide] | < 2.5 nM |
| Cc1cc(CC(=O)Nc2cnn(C(C)(C)C)c2)ccc1Oc1ncnc2ccc(OC3CCN(CC(F)(F)F)CC3)cc12 [Compound 111, N-(1-(tert-butyl)-1H-pyrazol-4-yl)-2-(3-methyl-4-((6-((1-(2,2,2-trifluoroethyl)piperidin-4-yl)oxy)quinazolin-4-yl)oxy)phenyl) acetamide] | 36.4 nM |
| CC(C)(C)n1cc(NC(=O)Cc2ncc(Oc3ncnc4ccc(OC5CCN(CC(F)(F)F)CC5)cc34)cc2F)cn1 [Compound 112, N-(1-(tert-butyl)-1H-pyrazol-4-yl)-2-(3-fluoro-5-((6-((1-(2,2,2-trifluoroethyl)piperidin-4-yl)oxy)quinazolin-4-yl)oxy)pyridin-2-yl)acetamide] | 20.8 nM |
| Cc1cc(CC(=O)Nc2cnn(C(C)(C)C)c2)c(F)cc1Oc1ccnc2ccc(OC3CCNCC3)cc12 [Compound 114, N-(1-(tert-butyl)-1H-pyrazol-4-yl)-2-(2-fluoro-5-methyl-4-((6-(piperidin-4-yloxy)quinolin-4-yl)oxy)phenyl) acetamide] | < 2.5 nM |
| Cc1cc(CC(=O)Nc2cnn(C(C)(C)C)c2)c(F)cc1Oc1ccnc2ccc(OC3CCN(C)CC3)cc12 [Compound 115, N-(1-(tert-butyl)-1H-pyrazol-4-yl)-2-(2-fluoro-5-methyl-4-((6-((1-methyl-piperidin-4-yl)oxy)quinolin-4-yl)oxy)phenyl) acetamide] | < 2.5 nM |
| Cc1cc(CC(=O)Nc2cnn(C(C)(C)C)c2)c(F)cc1Oc1ncnc2ccc(OC3CCNCC3)cc12 [Compound 116] | < 2.5 nM |
| Cc1cc(CC(=O)Nc2cnn(C(C)(C)C)c2)c(F)cc1Oc1ncnc2ccc(OC3CCN(C)CC3)cc12 [Compound 117, N-(1-(tert-butyl)-1H-pyrazol-4-yl)-2-(2-fluoro-5-methyl-4-((6-((1-methyl-piperidin-4-yl)oxy)quinazolin-4-yl)oxy)phenyl) acetamide] | < 2.5 nM |
| Cc1cc(CC(=O)Nc2cnn(C(C)(C)C)c2)ccc1Oc1ccnc2ccc(S(=O)(=O)N3CCN(C)CC3)cc12 [Compound 118, N-(1-(tert-butyl)-1H-pyrazol-4-yl)-2-(3-methyl-4-((6-((4-methylpiperazin-1-yl)sulfonyl)quinolin-4-yl)oxy)phenyl)acetamide] | < 2.5 nM |
| Cc1cc(CC(=O)Nc2cnn(C(C)(C)C)c2)ccc1Oc1ccnc2ccc(S(=O)(=O)N3CCNCC3)cc12 [Compound 119, N-(1-(tert-butyl)-1H-pyrazol-4-yl)-2-(3-methyl-4-((6-(piperazin-1-ylsulfonyl)quinolin-4-yl)oxy)phenyl)acetamide] | < 2.5 nM |
| Cc1cc(CC(=O)Nc2cnn(C(C)(C)C)c2)ccc1Oc1ccnc2ccc(O[C@H]3C[C@@H](N)C3)cc12 [Compound 123, 2-(4-((6-((1s,3s)-3-aminocyclo-butoxy)quinolin-4-yl)oxy)-3-methyl-phenyl)-N-(1-(tert-butyl)-1H-pyrazol-4-yl)acetamide] | < 2.5 nM |
| Cc1cc(CC(=O)Nc2cnn(C(C)(C)C)c2)ccc1Oc1ccnc2ccc(O[C@H]3C[C@H](N)C3)cc12 [Compound 124, 2-(4-((6-((1r,3r)-3-aminocyclo-butoxy)quinolin-4-yl)oxy)-3-methyl-phenyl)-N-(1-(tert-butyl)-1H-pyrazol-4-yl)acetamide] | < 2.5 nM |

Next, values leading:

| IC50 | Structure (SMILES) |
| --- | --- |
| < 2.5 nM | Cc1cc(CC(=O)Nc2cnn(C(C)(C)C)c2)ccc1Oc1ccnc2ccc(OC3CCN(CC(F)F)CC3)cc12 [Compound 120, N-(1-(tert-butyl)-1H-pyrazol-4-yl)-2-(4-((6-((1-(2,2-difluoroethyl)piperidin-4-yl)oxy)quinolin-4-yl)oxy)-3-methylphenyl) acetamide] |
| < 2.5 nM | Cc1cc(CC(=O)Nc2cnn(C(C)(C)C)c2)ccc1Oc1ccnc2ccc(O[C@H]3CC[C@@H](N)CC3)cc12 [Compound 121, 2-(4-((6-(((1s,4s)-4-aminocyclo-hexyl)oxy)quinolin-4-yl)oxy)-3-methyl-phenyl)-N-(1-(tert-butyl)-1H-pyrazol-4-yl)acetamide] |
| < 2.5 nM | Cc1cc(CC(=O)Nc2cnn(C(C)(C)C)c2)ccc1Oc1ccnc2ccc(O[C@H]3CC[C@H](N)CC3)cc12 [Compound 122, 2-(4-((6-(((1r,4r)-4-aminocyclohexyl)oxy)quinolin-4-yl)oxy)-3-methylphenyl)-N-(1-(tert-butyl)-1H-pyrazol-4-yl)acetamide] |
| < 2.5 nM | CN1CCC(S(=O)(=O)c2ccc3nccc(Oc4ccc(CC(=O)Nc5cnn(C(C)(C)C)c5)c(F)c4)c3c2)CC1 [Compound 125, N-(1-(tert-butyl)-1H-pyrazol-4-yl)-2-(2-fluoro-4-((6-((1-methylpiperidin-4-yl)sulfonyl)quinolin-4-yl)oxy)phenyl)acetamide] |
| < 2.5 nM | CN1CCN(S(=O)(=O)c2ccc3nccc(Oc4ccc(CC(=O)Nc5cnn(C(C)(C)C)c5)c(F)c4)c3c2)CC1 [Compound 126, N-(1-(tert-butyl)-1H-pyrazol-4-yl)-2-(2-fluoro-4-((6-((4-methylpiperazin-1-yl)sulfonyl)quinolin-4-yl)oxy)phenyl)acetamide] |
| < 2.5 nM | CC(C)(C)n1cc(NC(=O)Cc2ccc(Oc3ccnc4ccc(S(=O)(=O)C5CCNCC5)cc34)cc2F)cn1 [Compound 127, N-(1-(tert-butyl)-1H-pyrazol-4-yl)-2-(2-fluoro-4-((6-(piperidin-4-ylsulfonyl)quinolin-4-yl)oxy)phenyl)acetamide] |
| < 2.5 nM | CC(C)(C)n1cc(NC(=O)Cc2ccc(Oc3ccnc4ccc(S(=O)(=O)N5CCNCC5)cc34)cc2F)cn1 [Compound 128, N-(1-(tert-butyl)-1H-pyrazol-4-yl)-2-(2-fluoro-4-((6-(piperazin-1-ylsulfonyl)quinolin-4-yl)oxy)phenyl)acetamide] |
| 4.4 nM | [2H]C([2H])([2H])N1CCC(Oc2ccc3nccc(Oc4cnc(CC(=O)Nc5cnn(C(C)(C)C)c5)c(F)c4)c3c2)CC1 [Compound 129, N-(1-(tert-butyl)-1H-pyrazol-4-yl)-2-(3-fluoro-5-((6-((1-(methyl-d3)piperidin-4-yl)oxy)quinolin-4-yl)oxy)pyridin-2-yl) acetamide] |
| < 2.5 nM | CCS(=O)(=O)c1ccc2nccc(Oc3ccc(CC(=O)Nc4cnn(C(C)(C)C)c4)c(F)c3)c2c1 [Compound 130, N-(1-(tert-butyl)-1H-pyrazol-4-yl)-2-(4-((6-(ethylsulfonyl)quinolin-4-yl)oxy)-2-fluorophenyl)acetamide] |
| < 2.5 nM | CC(C)(C)n1cc(NC(=O)Cc2ccc(Oc3ccnc4ccc(S(=O)(=O)C5CC5)cc34)cc2F)cn1 [Compound 131, N-(1-(tert-butyl)-1H-pyrazol-4-yl)-2-(4-((6-(cyclopropylsulfonyl)quinolin-4-yl)oxy)-2-fluorophenyl)acetamide] |

— patent US12624018B1, “Inhibitors of RIPK2 and medical uses thereof” (Odyssey Therapeutics, Inc., priority 2022, dated 2026)
